The values that follow come from patent US8034314B2, “Photoreactive compound specifically binding to calcium binding proteins” (priority 2004, dated 2011).

Experiment [1] concerns the target T1, ryanodine receptor (RyR) / Ca2+-release channel (Oryctolagus cuniculus, UniProt P11716).
T1 construct: from tissue; host or cells: rabbit fast twitch skeletal muscle SR membranes
Kind of experiment: [3H]ryanodine binding to SR membranes. Also on record: species or system rabbit. Particulars: no UV; mean ± SEM of 3 to 5 experiments. How it is done: (§1) Sarcoplasmic reticulum (SR) membranes were prepared from rabbit fast twitch skeletal muscle as described by Saito [Saito et al.: J. Cell Biol. 99 (1984) 875-85]. Mitochondria were isolated from rat liver as described by us previously [Gincel D. et al.: Biochem J. 358 (2001) 147-55]. VDAC was purified by a method developed in our laboratory, using columns of hydroxyapatite and reactive red agarose [Gincel D. et al.: J. Bioenerget. Biomembr. 32 (2000) 571-83].
For the determination of [^3H]ryanodine binding, SR membranes were incubated for 20-60 min at 37° C. in a standard binding solution containing 1M NaCl, 20 mM MOPS (pH 7.4), 50 μM free Ca^2+ and 20 nM [^3H]ryanodine. Unbound ryanodine was separated from protein-bound ryanodine by vacuum filtration of the sample through nitrocellulose filters (0.45 μm), followed by two washes with 4 ml ice-cold buffer containing 0.2 M NaCl, 10 mM MOPS (pH 7.4) and 50 μM CaCl2. The retained radioactivity in the dried filters was determined by liquid scintillation counting. Specific binding of [^3H]ryanodine was defined as the difference between the binding in the presence of 20 nM [^3H]ryanodine and in the presence of 20 μM unlabeled ryanodine.
(§2) The hexavalent RuR and the trivalent Ru360 have been employed in various studies as inhibitors of Ca^2+-dependent reactions. As shown here, even with no photoactivation, AzRu, in contrast to RuR and Ru360, was effective in inhibiting the SR Ca^2+-pump (Table 3). […] This may open the way to inhibit other Ca^2+-dependent activities that are not sensitive to RuR, such as the plasma membrane Ca^2+-ATPase. […] RuR was employed to improve mitochondrial production in ischemic reperfused pig myocardium, was employed in the nervous system to follow neuronal death progress and can act as an anti-oxidant in certain conditions. Considering the potent activity of AzRu in RuR-insensitive reactions (see Table 3), its applications in various biological studies should be explored. Ca^2+ accumulation in SR and mitochondria was assayed as described above in the absence and presence of different concentrations of RuR (0.05-100 μM), Ru360 (0.01-100 μM) or AzRu (0.1-100 μM). The concentration required for 50% inhibition (IC50) was derived from the plot of Ca^2+ accumulation activity or ryanodine binding as a function of the reagent concentration. The results are the mean±SEM of 3 to 5 experiments (Table 3).

The subject of experiment [2] is mitochondrial uniporter (Ca2+ uptake in mitochondria). The experiment is described as follows: Ca2+ uptake/accumulation in isolated mitochondria. In kind it is biochemical, rat. As to conditions: no UV; mean ± SEM of 3 to 5 experiments. How it is done: as §1
Ca^2+-accumulation in freshly prepared mitochondria (0.5 mg/ml) was assayed for 1 to 20 minutes at 30° C. in the presence of 225 mM mannitol, 75 mM sucrose, 120 μM CaCl2 (containing 3×10^4 cpm/nmol ^45Ca^2+), 5 mM HEPES/KOH pH 7.0, and 5 mM succinate with 0.1 mM Pi, or 4 mM MgCl2 with 3 mM ATP. The Ca^2+-uptake was terminated by rapid Millipore filtration, followed by a wash with 5 ml of 0.15 M KCl. The Ca^2+-accumulation in SR was determined as described previously [Shoshan-Barmatz V. & Shaineberg A.: Biochim. Biophys. Acta 1065 (1991) 82-8]. Electron transport from succinate to cytochrome c was described in above cited article [Gincel D. et al.: J. Bioenerget. Biomembr. 32 (2000) 571-83].
The effect of AzRu on mitochondrial process of electron transport from the donor succinate to the acceptor cytochrome c was characterized as described above. Although said electron transfer involves several dozens electron transfer carriers, this reaction was not affected by azido-ruthenium of this invention.
as §2

For experiment [3], the system named is U-937 human monocytic cell line. Kind of experiment: STS-induced apoptotic cell death of U-937 cells (acridine orange/ethidium bromide staining). The class given is cell-based. As to conditions: STS 1.25 μM, no AzRu. As for the experimental part:
The U-937 human monocytic cell line was grown under an atmosphere of 95% air and 5% CO2 in RPMI 1640 supplemented with 10% fetal calf serum (FCS), 1 mM L-glutamine, 100 U/ml penicillin, and 100 μg/ml streptomycin. Cells were plated at a density of 5.4×10^4 cells/cm^2 in 24-well plates and then incubated with or without AzRu for 18 hr before exposure to 1.25 μM staurosporine (STS) to induce apoptosis. Cell viability was analyzed 5 and 7 hrs after STS addition by staining with 100 μg/ml acridine orange (AcOr) and 100 μg/ml ethidium bromide (EtBr) in PBS. The cells were then visualized by fluorescence microscopy (Olympus IX51) and images were recorded on an Olympus DP70 camera, using an SWB filter.
AzRu had no effect on the viability of the cells that were not exposed to STS. In FIG. 13 A, U-937 cells were incubated without (a, c) or with AzRu (10 μM) (b,d) for 18 hrs and thereafter were exposed to STS (1.25 μM) (c and d). After five hours the cells were stained with acridine orange and ethidium bromide. Arrows indicate cells in early apoptotic state, represented as degraded nucleus, but with intact cell membrane (stained by acridine orange). Arrowheads indicate a late apoptotic state, as shown by the presence of a degraded nucleus (stained by both acridine orange and ethidium bromide). Scale bar, 20 μm. In FIG. 13 B, quantitative analysis of apoptotic cell death in control cells and cells exposed to AzRu was assessed 5 and 7 hr after their exposure to STS (1.25 by ANOVA and t-test. P<0.001 was considered statistically significant (***). Data are the means±SEM, n=3. In each independent experiment, approximately 200 cells were counted for each treatment.

T1 sequence (P11716 whole entry): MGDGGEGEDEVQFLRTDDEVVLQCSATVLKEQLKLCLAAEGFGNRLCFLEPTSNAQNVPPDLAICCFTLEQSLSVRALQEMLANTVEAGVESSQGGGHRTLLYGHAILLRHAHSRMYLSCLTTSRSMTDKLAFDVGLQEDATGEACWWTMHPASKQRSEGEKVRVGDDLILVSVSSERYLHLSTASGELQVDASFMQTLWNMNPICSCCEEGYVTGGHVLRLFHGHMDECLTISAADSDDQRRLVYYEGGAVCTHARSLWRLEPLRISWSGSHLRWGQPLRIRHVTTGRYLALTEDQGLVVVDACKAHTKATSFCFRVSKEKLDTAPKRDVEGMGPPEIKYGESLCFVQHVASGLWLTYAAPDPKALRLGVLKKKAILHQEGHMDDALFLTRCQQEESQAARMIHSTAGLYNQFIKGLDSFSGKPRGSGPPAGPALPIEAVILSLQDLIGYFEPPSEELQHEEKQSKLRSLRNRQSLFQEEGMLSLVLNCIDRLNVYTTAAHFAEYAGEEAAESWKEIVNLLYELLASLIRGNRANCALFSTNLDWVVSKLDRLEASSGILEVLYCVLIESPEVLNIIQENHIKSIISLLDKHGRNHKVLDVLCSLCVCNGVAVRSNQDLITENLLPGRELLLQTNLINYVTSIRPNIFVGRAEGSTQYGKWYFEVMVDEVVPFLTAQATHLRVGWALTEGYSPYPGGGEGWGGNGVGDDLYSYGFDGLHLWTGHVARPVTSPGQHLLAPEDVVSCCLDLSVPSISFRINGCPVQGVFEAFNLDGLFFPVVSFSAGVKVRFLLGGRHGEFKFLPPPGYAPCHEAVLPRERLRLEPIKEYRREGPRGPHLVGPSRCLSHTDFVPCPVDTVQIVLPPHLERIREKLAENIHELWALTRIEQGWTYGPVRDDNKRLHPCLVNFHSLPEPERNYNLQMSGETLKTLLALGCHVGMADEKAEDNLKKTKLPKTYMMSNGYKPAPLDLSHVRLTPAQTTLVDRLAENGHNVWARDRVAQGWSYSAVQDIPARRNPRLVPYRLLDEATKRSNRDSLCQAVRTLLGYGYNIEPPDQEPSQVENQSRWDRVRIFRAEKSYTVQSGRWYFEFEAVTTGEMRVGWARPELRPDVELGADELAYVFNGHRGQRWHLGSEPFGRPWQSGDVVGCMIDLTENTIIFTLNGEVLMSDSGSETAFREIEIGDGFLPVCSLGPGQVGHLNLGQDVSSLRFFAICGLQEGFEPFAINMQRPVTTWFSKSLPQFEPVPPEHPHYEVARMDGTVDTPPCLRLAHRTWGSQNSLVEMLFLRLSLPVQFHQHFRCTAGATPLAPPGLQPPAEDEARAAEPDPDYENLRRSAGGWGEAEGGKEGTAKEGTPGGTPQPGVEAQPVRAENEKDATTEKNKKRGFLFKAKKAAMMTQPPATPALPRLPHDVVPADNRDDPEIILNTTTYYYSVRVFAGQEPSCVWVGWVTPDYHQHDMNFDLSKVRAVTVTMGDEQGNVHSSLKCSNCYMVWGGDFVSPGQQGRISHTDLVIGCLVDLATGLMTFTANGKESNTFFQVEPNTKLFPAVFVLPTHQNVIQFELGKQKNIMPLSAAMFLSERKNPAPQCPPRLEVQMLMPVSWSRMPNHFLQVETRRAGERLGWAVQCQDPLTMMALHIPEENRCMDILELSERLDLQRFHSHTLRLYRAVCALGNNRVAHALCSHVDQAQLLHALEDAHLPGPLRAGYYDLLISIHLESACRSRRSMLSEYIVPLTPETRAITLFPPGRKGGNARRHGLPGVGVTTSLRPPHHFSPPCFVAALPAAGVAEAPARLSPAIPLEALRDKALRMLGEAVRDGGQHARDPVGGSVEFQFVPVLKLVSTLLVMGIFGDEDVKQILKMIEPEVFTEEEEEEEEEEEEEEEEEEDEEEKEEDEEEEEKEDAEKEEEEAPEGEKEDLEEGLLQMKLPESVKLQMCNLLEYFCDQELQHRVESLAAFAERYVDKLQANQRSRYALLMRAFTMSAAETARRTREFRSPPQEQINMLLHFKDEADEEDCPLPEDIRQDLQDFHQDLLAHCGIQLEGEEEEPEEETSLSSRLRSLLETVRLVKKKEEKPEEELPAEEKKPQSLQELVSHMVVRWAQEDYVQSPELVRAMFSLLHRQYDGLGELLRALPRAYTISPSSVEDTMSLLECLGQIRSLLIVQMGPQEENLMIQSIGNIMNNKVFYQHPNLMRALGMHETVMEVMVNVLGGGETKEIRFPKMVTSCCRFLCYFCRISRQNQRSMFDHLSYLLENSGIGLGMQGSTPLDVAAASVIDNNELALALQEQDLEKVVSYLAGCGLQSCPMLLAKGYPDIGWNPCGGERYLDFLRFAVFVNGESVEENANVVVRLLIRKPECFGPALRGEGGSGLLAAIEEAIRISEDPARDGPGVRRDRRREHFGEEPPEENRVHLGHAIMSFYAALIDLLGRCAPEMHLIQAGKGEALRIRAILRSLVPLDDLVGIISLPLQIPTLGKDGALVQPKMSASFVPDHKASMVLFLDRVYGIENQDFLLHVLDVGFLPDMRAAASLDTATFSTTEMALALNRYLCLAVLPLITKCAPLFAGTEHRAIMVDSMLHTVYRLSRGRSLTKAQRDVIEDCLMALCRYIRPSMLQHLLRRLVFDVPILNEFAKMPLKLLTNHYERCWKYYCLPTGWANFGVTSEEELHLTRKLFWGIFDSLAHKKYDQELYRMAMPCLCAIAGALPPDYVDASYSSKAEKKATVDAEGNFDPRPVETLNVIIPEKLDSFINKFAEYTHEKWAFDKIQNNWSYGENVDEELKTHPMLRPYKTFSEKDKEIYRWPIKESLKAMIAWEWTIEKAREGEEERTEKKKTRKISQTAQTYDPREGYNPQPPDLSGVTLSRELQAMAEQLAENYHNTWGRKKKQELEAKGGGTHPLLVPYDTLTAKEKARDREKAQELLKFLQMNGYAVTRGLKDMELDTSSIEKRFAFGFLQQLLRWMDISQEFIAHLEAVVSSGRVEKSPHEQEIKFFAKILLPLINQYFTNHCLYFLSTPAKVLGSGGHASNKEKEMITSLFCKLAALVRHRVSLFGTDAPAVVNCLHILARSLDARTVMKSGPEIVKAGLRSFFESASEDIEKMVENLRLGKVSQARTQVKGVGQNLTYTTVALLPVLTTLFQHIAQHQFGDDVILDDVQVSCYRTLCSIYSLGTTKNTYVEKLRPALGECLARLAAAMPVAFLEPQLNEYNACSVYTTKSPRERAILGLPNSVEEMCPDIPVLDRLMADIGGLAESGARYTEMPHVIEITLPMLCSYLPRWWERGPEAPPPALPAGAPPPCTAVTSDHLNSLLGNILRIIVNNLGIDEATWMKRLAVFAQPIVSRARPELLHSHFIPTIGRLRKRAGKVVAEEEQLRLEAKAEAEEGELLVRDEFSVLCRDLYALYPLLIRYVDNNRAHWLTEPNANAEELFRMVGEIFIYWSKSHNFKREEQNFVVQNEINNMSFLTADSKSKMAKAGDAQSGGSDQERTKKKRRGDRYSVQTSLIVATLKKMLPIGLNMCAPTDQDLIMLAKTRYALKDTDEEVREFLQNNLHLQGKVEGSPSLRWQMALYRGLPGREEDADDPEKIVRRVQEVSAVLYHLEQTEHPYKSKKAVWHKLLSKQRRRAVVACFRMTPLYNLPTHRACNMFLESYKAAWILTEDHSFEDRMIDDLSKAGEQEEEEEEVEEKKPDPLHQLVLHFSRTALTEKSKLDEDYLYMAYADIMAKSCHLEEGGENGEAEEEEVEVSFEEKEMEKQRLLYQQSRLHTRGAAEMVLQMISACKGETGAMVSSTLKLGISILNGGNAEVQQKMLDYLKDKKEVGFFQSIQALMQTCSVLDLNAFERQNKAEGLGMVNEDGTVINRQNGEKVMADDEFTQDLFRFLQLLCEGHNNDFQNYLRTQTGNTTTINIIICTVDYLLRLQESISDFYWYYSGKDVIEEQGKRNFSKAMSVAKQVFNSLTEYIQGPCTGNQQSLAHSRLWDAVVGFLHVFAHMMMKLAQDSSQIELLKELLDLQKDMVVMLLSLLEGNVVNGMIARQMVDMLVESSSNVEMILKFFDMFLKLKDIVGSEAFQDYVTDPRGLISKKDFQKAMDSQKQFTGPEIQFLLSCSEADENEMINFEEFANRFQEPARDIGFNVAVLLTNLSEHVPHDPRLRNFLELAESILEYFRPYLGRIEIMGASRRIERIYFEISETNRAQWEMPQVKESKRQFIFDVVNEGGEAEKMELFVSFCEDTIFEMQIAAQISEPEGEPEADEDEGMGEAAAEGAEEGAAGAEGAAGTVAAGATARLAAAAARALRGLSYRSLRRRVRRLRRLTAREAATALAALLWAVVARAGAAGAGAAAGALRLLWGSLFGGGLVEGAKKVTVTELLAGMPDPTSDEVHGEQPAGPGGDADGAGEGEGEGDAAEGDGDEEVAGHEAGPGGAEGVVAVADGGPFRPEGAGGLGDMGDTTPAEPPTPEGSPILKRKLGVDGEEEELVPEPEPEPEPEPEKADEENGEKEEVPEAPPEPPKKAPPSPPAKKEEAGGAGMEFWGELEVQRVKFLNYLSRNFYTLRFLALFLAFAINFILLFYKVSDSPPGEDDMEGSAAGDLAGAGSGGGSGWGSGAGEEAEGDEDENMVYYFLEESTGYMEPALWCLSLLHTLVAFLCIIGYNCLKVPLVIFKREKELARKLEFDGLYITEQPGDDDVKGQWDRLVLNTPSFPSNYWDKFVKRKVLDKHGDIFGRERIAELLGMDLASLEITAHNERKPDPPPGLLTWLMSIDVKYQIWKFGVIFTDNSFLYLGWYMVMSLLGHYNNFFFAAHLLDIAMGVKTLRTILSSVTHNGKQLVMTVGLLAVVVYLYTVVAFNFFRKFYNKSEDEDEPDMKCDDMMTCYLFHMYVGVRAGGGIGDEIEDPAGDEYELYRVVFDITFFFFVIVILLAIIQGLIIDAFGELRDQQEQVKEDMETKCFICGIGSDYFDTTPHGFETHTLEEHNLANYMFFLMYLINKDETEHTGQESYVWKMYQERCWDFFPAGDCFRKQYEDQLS

Usually IC50 stands for the point on the concentration scale where inhibition reaches its midpoint. As for `Cl.Cl.Cl.Cl.Cl.Cl.N.N.N.N.N.N.N.N.N.N.N.N.N.N.[O-2].[O-2].[Ru+3].[Ru+3].[Ru+4]` [RuR, ruthenium red, reference compound], the IC50 was 7.2 ± 0.55 µM in experiment [1] and 160 ± 30 nM in experiment [2].

For `CN[C@@H]1C[C@H]2O[C@@](C)([C@@H]1OC)n1c3ccccc3c3c4c(c5c6ccccc6n2c5c31)C(=O)NC4` [STS, staurosporine, reference compound], the “Apoptotic cell death (% of the cells)” value in experiment [3] (5 hrs exposure) is recorded as “about 42%”; in experiment [3] (7 hrs exposure), around 76%.

As to Ru360 [reference compound], the IC50 in experiment [1] amounted to 14.8 ± 2.8 µM; in experiment [2] it was 67 ± 8 nM.
